Legend:
CXCR4 receptor = conditions: Cu-bound vs unbound AMD3100; cited from earlier work
[1] = no reference given; cited from earlier work
[2] = humans, within 24 h, primarily through kidneys; cited from earlier work
[3] = test system: U87 and U87-stb-CXCR4 glioblastoma xenografts; type: in vivo; conditions: whole body image at 90 min
[4] = test system: U87 and U87-stb-CXCR4 glioblastoma xenografts; assay: Ex vivo biodistribution in subcutaneous brain tumor model; design: species or system NOD/SCID mice; conditions: 740 kBq, 90 min after injection

Structure (SMILES)	increase of affinity to the CXCR4 receptor by Cu bound to the cyclam (CXCR4 receptor)	plasma protein bound [1]	drug eliminated as parent [2]	distribution of radiotracer (PET) [3]	radioactivity distribution (ex vivo biodistribution) [4]
c1cc(CN2CCCNCCNCCCNCC2)ccc1CN1CCCNCCNCCCNCC1 [AMD3100]	6 fold	~58%	~70%		
[Cl][64Cu][Cl] [[^64Cu]CuCl2]				uniform distribution	uniform

— paper PMC2874192 (Cancer research, 2010)
